pIC50: −log10 of the molar value.
Legend:
[1] = molecular target: T1, human serum albumin (HSA) (Homo sapiens, UniProt P02768); assay: ESI-MS study on covalent labeling of sulfhydryl group of HSA; type: binding; conditions: drug with 65 μM HSA, Tris pH 7.5, 5 h, room temperature
Description: The MS drug-HSA protein binding studies were carried out using an Applied Biosystems API 2000 Triple Quadrupole mass spectrometer (Thornhill, Canada) equipped with a syringe pump (Harvade Apparatus, Holliston, Mass.) at a flow rate of 5-10 μl/min. The Analyst software (version 1.4) was used for system control and data acquisition. The ESI source was operated in the positive ion mode with an electrospray voltage of +4.4 kV without capillary heating. MagTran freeware (version 1.02, http://www.geocities.com/SiliconValley/Hills/2679/magtran.html) was used for charge state deconvolution of HSA and drug-HSA covalent adducts.
The reaction of drug and HSA was carried out by mixing drug (or not) in DMSO (11μl, 6 mM) with HSA in 16 mM Tris pH 7.5 buffer (1 ml, 65 μM) for 5 h at room temperature. The reaction mixture was then dialyzed using a dialysis membrane with a 10,000 Da cutoff. The dialyzed mixture (150 μl) was diluted with a solution mixture of water (124 μl), methanol (76 μl), and formic acid (17 μl, 6% v/v). Scanning was 1000-1800 m/z units every 4 s with a step size of 0.10 amu.

[2] = Thioglo-1 fluorescent labeling of sulfhydryl groups, cysteine; conditions: 50 μM drug, 37° C., 3 h, 20 mM Tris pH 8.0
Description: (§1) The ability of drugs to label sulfhydryl groups of cysteine, glutathione, human serum albumin (HSA) and biomolecules in K562 cells was determined spectrofluorometrically using Thioglo-1, a maleimide reagent that reacts quickly with the sulfhydryl groups to produce highly fluorescent covalent adducts. Drugs that react with sulfhydryl groups block the formation of fluorescent adducts when sulfhydryl reactant is treated with drugs prior to Thioglo-1 treatment. Cysteine (10 μM), glutathione (10 μM), human serum albumin (10 μM), or K562 cell homogenate (6×10^5 cells) in 20 mM Tris pH 8.0, was treated with 1μl of drug (or not) in DMSO at 50 μM reaction concentration at 37° C. for 3 h, followed by the addition of Thioglo-1 (22 μM). The fluorescence was measured in a Fluostar Galaxy (BMG, Durham, N.C.) fluorescence plate reader using an excitation wavelength of 380 nm and an emission wavelength of 520 nm, and the percentage inhibition of fluorescent labeling was obtained using the following equation: % Inhibition=[(1−(Fdrug−Fbackground)/Fdmso]×100, where Fdrug is the fluorescent value for Thioglo-1 treatment of biomolecules pretreated with drug, Fbackground is the fluorescent value for sample containing Thioglo-1 in Tris buffer only, and Fdmso is the fluorescent value for Thioglo-1 treatment of biomolecules pretreated with DMSO solvent only.

[3] = molecular target: T1, human serum albumin (HSA); assay: Thioglo-1 fluorescent labeling of sulfhydryl groups, human serum albumin; type: biochemical; conditions: 50 μM drug, HSA 10 μM, 37° C., 3 h, 20 mM Tris pH 8.0
Description: as §1

[4] = test system: human leukemia K562 cells; assay: K562 cell growth inhibition assay (MTS); type: cell-based; conditions: 72 h incubation, read-out: Median growth inhibitory concentration (IC50) of K562 cells
Description: K562 cells were obtained from American Type Culture Collection (Rockville, Md.). These cells were maintained as suspension cultures in alpha minimum essential medium (αMEM) (Gibco BRL, Burlington, Canada) containing 2 mM L-glutamine and supplemented with 10% fetal calf serum (Invitrogen, Burlington, ON, Canada), 20 mM NaHCO3, 20 mM HEPES (Sigma), 100 units/ml penicillin G, and 100 μg/ml streptomycin at pH 7.4 in an atmosphere of 5% CO2 and 95% air at 37° C. For the measurement of growth inhibition, cells in exponential growth were harvested and seeded at 6000 cells/well in 96-well plates (100 μl/well). Drugs were dissolved in DMSO and added to the wells such that the final concentration of DMSO was 0.5% (v/v). After 72 h incubation, 7 μl of 3-(4,5-dimethylthiazol-2-yl)-5-(3-carboxymethoxyphenyl)-2-(4-sulfophenyl)-2H-tetrazolium (MTS) Cell Titer 96® AQueous One Solution (Promega, Md., WI) was added to each well and incubated for a further 3 h. The absorbance was measured in a Molecular Devices (Menlo Park, Calif.) plate reader. The spectrophotometric 96-well plate cell growth inhibition assay measures the ability of the cells to enzymatically reduce MTS. Three replicates were measured at each drug concentration, and the IC50 values and their SEs for growth inhibition were obtained by fitting the absorbance-drug concentration data to a four-parameter logistic equation.

human topoisomerase IIα = molecular target: T2, human topoisomerase IIα (Homo sapiens, UniProt P11388); assay: Topoisomerase IIα decatenation inhibition assay; type: biochemical; conditions: K562 cells nuclear extract, kDNA decatenation
T2 construct: 300 ng K562 cells nuclear extract, the amount that gave 80% decatenation; endogenous in cells; host or cells: K562 cells nuclear extract
Description: The catalytic inhibition of human topoisomerase IIα by a drug was measured by the ATP-dependent decatenation of kDNA (Topogen, Columbus, Ohio) into minicircles of DNA as we previously described (Hasinoff 1995 QSAR ICRF-187). The 20 μl reaction mixture contained 0.5 mM ATP, 50 mM Tris-HCl (pH 8.0), 120 mM KCl, 10 mM MgCl2, 30 μg/ml bovine serum albumin, 40 ng kDNA, drug or DMSO (0.5 μl) and 300 ng K562 cells nuclear extract, the amount that gave 80% decatenation. The enzymatic reaction was carried out at 37° C. and was terminated by the addition of 6 μl of buffer containing 5 mM Tris pH 8.0, 30% w/v sucrose, 0.5% bromophenol blue, and 125 mM EDTA. The resulting mixture was separated by electrophoresis (2 h at 8 V/cm) on an agarose gel prepared from 1.2% w/v agarose and 0.5 μg/ml ethidium bromide in TAE buffer pH 8.0 (40 mM Tris base, 0.114% (v/v) glacial acetic acid, 2 mM EDTA). The DNA in the gel was imaged by its fluorescence on an Alpha Annotech Fluorchem 8900 imaging system equipped with a 365 nm illuminator and a CCD camera. Densitometry scanning of gel photographs was used to obtain the fluorescence intensity of the band corresponding to the DNA minicircles. The percentage inhibition of K562 topoisomerase II catalytic activity at concentrations of 3 and 30 μM was determined using the following equation: % Inhibition=[(1−(Bdrug−Bbackground)/Bdmso]×100, where Bdrug is the band intensity value for the enzymatic reaction sample treated with drug, Bbackground is the band intensity value for sample without the enzyme, and Bdmso is the band intensity value for the enzymatic reaction sample treated with DMSO solvent only.

K562 cell homogenate = assay: Thioglo-1 fluorescent labeling of sulfhydryl groups, K562 cell homogenate; type: biochemical, human; conditions: 50 μM drug, 6×10^5 cells, 37° C., 3 h, 20 mM Tris pH 8.0
Description: as §1

[5] = Thioglo-1 fluorescent labeling of sulfhydryl groups, glutathione; conditions: 50 μM drug, 37° C., 3 h, 20 mM Tris pH 8.0
Description: as §1

T1 sequence (P02768 25-609): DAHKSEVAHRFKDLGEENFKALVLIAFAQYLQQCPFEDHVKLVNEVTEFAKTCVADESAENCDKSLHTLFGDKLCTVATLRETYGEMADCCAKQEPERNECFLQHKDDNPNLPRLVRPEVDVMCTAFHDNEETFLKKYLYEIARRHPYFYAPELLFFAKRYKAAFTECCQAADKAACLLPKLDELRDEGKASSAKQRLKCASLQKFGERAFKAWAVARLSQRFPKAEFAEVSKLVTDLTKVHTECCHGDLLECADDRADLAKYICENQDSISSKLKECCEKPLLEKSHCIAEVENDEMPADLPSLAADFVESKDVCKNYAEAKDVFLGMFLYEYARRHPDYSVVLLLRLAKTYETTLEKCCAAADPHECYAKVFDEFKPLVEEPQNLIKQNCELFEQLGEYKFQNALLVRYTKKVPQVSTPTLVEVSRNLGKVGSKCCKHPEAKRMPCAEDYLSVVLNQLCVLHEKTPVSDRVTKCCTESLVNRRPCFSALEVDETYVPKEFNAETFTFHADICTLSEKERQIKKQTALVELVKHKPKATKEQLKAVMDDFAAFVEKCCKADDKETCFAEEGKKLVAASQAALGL
T2 sequence (P11388 whole entry): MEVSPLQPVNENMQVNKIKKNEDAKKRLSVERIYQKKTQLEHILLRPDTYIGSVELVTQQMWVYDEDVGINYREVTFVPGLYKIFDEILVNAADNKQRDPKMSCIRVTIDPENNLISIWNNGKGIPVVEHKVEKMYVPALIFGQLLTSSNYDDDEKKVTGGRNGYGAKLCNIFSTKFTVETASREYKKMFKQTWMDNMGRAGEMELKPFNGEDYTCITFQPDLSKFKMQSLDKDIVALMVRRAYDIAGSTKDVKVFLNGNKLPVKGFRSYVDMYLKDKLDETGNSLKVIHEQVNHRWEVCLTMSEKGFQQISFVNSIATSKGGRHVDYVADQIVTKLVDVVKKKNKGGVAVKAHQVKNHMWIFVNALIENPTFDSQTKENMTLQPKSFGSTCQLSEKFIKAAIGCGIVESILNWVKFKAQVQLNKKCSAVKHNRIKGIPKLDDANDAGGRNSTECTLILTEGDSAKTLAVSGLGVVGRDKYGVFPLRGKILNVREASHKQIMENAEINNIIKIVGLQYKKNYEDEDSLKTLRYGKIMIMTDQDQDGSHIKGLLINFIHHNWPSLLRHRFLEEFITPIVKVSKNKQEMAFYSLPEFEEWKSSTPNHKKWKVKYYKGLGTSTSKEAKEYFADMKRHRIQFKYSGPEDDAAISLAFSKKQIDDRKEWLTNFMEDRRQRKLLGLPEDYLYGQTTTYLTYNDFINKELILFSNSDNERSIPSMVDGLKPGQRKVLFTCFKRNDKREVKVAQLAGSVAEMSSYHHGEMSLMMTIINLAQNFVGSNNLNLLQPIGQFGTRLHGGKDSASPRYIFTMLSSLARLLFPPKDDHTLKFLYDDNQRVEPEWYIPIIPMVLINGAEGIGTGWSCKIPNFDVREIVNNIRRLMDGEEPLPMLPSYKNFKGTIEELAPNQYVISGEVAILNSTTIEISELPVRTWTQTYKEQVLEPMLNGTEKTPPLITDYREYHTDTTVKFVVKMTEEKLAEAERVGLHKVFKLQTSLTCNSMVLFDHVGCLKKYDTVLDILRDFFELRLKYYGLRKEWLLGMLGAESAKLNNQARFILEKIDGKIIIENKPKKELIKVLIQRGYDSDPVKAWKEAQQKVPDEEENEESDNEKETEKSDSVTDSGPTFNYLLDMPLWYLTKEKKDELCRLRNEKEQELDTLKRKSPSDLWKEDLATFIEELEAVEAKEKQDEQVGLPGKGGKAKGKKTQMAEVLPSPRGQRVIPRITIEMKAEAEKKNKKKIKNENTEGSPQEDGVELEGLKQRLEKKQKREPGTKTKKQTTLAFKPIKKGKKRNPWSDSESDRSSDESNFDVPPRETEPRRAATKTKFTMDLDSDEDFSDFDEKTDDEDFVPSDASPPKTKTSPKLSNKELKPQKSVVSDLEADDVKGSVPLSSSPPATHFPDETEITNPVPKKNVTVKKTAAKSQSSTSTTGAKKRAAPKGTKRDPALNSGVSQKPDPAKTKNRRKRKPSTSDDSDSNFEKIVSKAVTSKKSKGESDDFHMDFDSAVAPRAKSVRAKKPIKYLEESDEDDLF

Covalent labeling of HSA (ESI-MS peak description) [1]: Covalent adduct of HSA and Compound 9 | % Inhibition of Thioglo-1 fluorescent labeling of Human serum albumin [3]: 85% | pIC50 [4]: 6.15 | % Inhibition of topoisomerase II catalytic activity (human topoisomerase IIα; 3 μM): 100% | % Inhibition of topoisomerase II catalytic activity (human topoisomerase IIα; 30 μM): 100%
Structure (SMILES): [O-][S+]1CCON=C1c1cc2ccccc2s1 (centres unmarked) [CMPD #9]
% Inhibition of Thioglo-1 fluorescent labeling of 10 μM Cysteine [2]: 100% | % Inhibition of Thioglo-1 fluorescent labeling of K562 Cell homogenate (K562 cell homogenate): 95% | % Inhibition of Thioglo-1 fluorescent labeling of 10 μM Glutathione [5]: 100%
